Results as given in patent publication US20110294842A9, “SPIRO (FURO [3, 2-C] PYRIDINE-3-3' -INDOL) -2' (1'H)-ONE DERIVATIVES AND RELATED COMPOUNDS FOR THE TREATMENT OF SODIUM-CHANNEL MEDIATED DISEASES, SUCH AS PAIN” (Xenon Pharmaceuticals Inc., priority 2006, published 2011).

What was measured:
[1] = test system: sodium channel; experiment: Guanidine influx assay (in vitro); assay type: cell-based, human or rat; conditions: known cell line that expresses a sodium channel; read-out: IC50 Activity Level
Source text: This example describes an in vitro assay for testing and profiling test agents against human or rat sodium channels stably expressed in cells of either an endogenous or recombinant origin. The assay is also useful for determining the IC-50 of a sodium channel blocking compound. The assay is based on the guanidine flux assay described by Reddy, N. L., et al., J Med Chem (1998), 41(17):3298-302.
The guanidine influx assay is a radiotracer flux assay used to determine ion flux activity of sodium channels in a high-throughput microplate-based format. The assay uses ^14C-guanidine hydrochloride in combination with various known sodium channel modulators, to assay the potency of test agents. Potency is determined by an IC-50 calculation. Selectivity is determined by comparing potency of the compound for the channel of interest to its potency against other sodium channels (also called ‘selectivity profiling’).
Each of the test agents is assayed against cells that express the channels of interest. Voltage gated sodium channels are either TTX sensitive or insensitive. This property is useful when evaluating the activities of a channel of interest when it resides in a mixed population with other sodium channels. The following Table 1 summarizes cell lines useful in screening for a certain channel activity in the presence or absence of TTX.
Cells expressing the channel of interest are grown according to the supplier or in the case of a recombinant cell in the presence of selective growth media such as G418 (Gibco/Invitrogen). The cells are disassociated from the culture dishes with an enzymatic solution (1×) Trypsin/EDTA (Gibco/Invitrogen) and analyzed for density and viability using haemocytometer (Neubauer). Disassociated cells are washed and resuspended in their culture media then plated into Scintiplates (Beckman Coulter Inc.) (approximately 100,000 cells/well) and incubated at 37° C./5% CO2 for 20-24 hours. After an extensive wash with Low sodium HEPES-buffered saline solution (LNHBSS) (150 mM Choline Chloride, […] (Sigma), 1 mM Calcium Chloride, 5 mM Potassium Chloride, 1 mM Magnesium Chloride, 10 mM Glucose) agents diluted with LNHBSS are added to each well. (Varying concentrations of test agent may be used). The activation/radiolabel mixture contains aconitine (Sigma), and ^14C-guanidine hydrochloride (ARC).
After loading the cells with test agent and activation/radiolabel mixture, the Scintiplates are incubated at ambient temperature. Following the incubation, the Scintplates are extensively washed with LNHBSS supplemented with guanidine (Sigma). The Scintiplates are dried and then counted using a Wallac MicroBeta TriLux (Perkin-Elmer Life Sciences). The ability of the test agent to block sodium channel activity is determined by comparing the amount of ^14C-guanidine present inside the cells expressing the different sodium channels.
IC-50 value of a test agent for a specific sodium channel may be determined using the above general method. IC-50 may be determined using a 3, 8, 10, 12 or 16 point curve in duplicate or triplicate with a starting concentration of 1, 5 or 10 μM diluted serially with a final concentration reaching the sub-nanomolar, nanomolar and low micromolar ranges. Typically the mid-point concentration of test agent is set at 1 μM, and sequential concentrations of half dilutions greater or smaller are applied (e.g. 0.5 μM; 5 μM and 0.25 μM; 10 μM and 0.125 μM; 20 μM etc.). The IC-50 curve is calculated using the 4 Parameter Logistic Model or Sigmoidal Dose-Response Model formula (fit=(A+((B−A)/(1+((C/×)̂ D)))).
The Synthetic Example numbers provided in Table 2 correspond to the Synthetic Examples herein: […]

[2] = target: SK-N-BE2C (NaV1.8) (Homo sapiens, UniProt Q9Y5Y9); assay type: cell-based
Sequence of SK-N-BE2C (NaV1.8) (Q9Y5Y9 whole entry, looked up): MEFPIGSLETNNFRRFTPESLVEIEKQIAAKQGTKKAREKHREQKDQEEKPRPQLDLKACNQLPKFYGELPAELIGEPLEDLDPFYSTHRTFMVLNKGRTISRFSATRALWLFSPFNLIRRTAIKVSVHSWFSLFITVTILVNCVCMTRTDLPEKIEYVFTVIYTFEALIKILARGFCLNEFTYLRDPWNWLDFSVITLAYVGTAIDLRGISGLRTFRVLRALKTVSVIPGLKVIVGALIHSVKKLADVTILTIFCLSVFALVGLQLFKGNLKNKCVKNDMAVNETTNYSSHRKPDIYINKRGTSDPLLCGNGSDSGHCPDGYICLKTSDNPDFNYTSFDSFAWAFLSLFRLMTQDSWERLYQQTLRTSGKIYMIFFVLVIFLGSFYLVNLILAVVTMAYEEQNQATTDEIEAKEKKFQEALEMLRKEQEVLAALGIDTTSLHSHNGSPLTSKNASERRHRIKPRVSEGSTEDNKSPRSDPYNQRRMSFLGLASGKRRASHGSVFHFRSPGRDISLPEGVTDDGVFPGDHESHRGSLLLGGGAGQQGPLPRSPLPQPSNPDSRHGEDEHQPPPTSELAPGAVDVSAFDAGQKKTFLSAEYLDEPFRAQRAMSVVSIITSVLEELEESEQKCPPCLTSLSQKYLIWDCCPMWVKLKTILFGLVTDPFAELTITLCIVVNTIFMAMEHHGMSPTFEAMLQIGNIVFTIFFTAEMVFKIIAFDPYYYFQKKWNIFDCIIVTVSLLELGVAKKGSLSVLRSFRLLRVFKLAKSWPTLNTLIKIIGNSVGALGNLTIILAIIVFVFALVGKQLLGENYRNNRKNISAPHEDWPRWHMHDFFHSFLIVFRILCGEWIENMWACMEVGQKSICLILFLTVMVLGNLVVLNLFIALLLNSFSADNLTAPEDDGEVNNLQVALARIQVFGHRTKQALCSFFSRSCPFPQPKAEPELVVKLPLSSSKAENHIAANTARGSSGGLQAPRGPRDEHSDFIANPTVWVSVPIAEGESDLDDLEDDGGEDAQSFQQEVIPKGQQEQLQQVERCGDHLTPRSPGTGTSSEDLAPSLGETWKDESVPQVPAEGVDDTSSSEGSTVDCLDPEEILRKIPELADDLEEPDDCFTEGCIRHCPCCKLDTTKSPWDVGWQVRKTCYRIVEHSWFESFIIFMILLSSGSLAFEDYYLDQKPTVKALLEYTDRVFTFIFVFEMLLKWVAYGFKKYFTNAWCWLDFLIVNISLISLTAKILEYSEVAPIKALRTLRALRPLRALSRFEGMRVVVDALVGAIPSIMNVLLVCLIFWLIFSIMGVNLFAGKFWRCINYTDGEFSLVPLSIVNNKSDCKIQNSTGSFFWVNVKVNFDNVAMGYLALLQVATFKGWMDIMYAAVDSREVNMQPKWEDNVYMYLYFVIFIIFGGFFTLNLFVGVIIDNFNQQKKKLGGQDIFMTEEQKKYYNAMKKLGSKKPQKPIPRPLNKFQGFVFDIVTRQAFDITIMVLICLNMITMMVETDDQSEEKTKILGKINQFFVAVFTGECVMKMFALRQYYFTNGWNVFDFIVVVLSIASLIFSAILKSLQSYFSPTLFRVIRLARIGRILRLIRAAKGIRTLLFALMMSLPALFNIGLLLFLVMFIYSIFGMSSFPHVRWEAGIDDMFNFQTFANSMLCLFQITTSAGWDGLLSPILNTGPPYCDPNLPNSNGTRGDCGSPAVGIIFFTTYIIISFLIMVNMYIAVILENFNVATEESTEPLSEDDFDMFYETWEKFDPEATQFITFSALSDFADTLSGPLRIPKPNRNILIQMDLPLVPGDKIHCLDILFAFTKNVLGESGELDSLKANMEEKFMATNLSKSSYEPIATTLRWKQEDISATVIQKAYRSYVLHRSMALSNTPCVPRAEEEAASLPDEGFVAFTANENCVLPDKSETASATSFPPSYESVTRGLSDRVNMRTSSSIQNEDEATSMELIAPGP

[3] = target: PC12 (Nav1.2) (Rattus norvegicus, UniProt P04775)
Sequence of PC12 (Nav1.2) (P04775 whole entry, looked up): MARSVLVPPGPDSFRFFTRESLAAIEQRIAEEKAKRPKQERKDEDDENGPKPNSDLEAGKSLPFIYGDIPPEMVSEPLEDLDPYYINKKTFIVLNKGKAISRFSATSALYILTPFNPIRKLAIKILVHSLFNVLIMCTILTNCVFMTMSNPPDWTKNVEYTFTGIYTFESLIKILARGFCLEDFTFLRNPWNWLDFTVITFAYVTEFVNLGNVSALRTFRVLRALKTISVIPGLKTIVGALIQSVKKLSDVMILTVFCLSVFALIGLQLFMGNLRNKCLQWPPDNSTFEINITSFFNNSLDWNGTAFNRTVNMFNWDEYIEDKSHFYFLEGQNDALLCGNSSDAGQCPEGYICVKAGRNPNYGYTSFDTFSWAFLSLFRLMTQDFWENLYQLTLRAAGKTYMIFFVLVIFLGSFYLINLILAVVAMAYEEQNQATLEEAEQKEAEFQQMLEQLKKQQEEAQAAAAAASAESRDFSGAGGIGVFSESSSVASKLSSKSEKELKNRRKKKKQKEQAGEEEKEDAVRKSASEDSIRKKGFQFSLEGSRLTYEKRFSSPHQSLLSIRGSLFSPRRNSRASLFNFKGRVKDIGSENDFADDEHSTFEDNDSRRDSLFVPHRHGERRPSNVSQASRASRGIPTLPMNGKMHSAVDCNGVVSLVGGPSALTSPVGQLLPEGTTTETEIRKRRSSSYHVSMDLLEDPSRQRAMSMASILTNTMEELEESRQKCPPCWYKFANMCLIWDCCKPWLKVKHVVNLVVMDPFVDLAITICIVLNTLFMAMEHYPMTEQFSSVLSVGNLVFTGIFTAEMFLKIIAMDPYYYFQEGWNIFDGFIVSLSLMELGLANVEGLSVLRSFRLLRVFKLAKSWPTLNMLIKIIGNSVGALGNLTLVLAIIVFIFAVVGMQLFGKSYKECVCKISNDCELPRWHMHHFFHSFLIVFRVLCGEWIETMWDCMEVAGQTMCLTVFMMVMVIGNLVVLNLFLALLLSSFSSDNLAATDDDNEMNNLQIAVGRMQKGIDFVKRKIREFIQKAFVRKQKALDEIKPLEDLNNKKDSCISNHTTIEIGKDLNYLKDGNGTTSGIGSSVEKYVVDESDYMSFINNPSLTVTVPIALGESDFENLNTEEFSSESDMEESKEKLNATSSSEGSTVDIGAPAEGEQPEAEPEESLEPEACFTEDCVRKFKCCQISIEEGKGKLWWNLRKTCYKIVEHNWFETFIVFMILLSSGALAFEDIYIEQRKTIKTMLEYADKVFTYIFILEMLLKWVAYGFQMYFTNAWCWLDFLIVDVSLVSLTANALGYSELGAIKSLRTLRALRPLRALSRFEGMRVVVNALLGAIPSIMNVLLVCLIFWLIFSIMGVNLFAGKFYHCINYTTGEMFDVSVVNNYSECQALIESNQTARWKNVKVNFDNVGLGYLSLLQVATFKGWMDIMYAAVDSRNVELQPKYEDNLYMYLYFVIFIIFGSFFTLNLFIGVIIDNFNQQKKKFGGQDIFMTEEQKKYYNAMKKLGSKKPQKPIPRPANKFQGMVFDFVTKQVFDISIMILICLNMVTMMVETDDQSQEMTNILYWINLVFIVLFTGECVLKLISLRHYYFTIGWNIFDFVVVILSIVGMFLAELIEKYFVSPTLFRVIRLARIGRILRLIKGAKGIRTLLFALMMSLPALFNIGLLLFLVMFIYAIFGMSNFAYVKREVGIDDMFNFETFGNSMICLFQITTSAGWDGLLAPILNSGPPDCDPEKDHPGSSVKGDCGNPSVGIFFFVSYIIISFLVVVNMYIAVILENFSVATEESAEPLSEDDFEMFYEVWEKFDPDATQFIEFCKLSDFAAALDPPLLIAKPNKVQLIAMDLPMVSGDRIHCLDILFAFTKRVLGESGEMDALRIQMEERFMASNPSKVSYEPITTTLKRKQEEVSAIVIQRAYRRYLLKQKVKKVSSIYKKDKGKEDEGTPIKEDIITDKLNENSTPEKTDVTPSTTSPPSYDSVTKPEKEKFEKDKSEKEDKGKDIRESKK

[4] = test system: CHO-K1 (Nav1.4); assay type: cell-based, Chinese Hamster
[5] = test system: L6 (Nav1.4 and 1.5); assay type: cell-based, rat

Row | Compound | IC50 [1] [nM] | melting point [°C] | other results
1 | COc1ccc2c(n1)C1(CO2)C(=O)N(Cc2ccc(C(F)(F)F)o2)c2ccc(F)cc21 (stereo not shown) [Example 10] | ≥ 1000 | – | –
2 | COc1ccc2c(n1)C1(CO2)C(=O)N(Cc2ccc(C(F)(F)F)o2)c2cccc(Br)c21 (stereo not shown) [Example 4] | 10 to 100 | – | –
3 | COc1ccc2c(n1)C1(CO2)C(=O)Nc2ccccc21 (stereo not shown) [Example 13] | ≥ 1000 | 199 to 200 | –
4 | COc1cc2c(cn1)OCC21C(=O)Nc2ccccc21 (stereo not shown) [Example 25] | 100 to 1000 | – | –
5 | CCCCCN1C(=O)C2(COc3ccncc32)c2ccccc21 (stereo not shown) [Example 1] | 100 to 1000 | – | –
6 | O=C1N(Cc2ccc(C(F)(F)F)o2)c2ccccc2C12COc1ccc(=O)[nH]c12 (stereo not shown) [Synthetic Example 7, 1′-{[5-(trifluoromethyl)-2-furyl]methyl}spiro[furo[3,2-b]pyridine-3,3′-indole]-2′,5(1′H,4H)-dione] | – | 175 to 177 | –
7 | COc1cc2c(cn1)OCC21C(=O)N(CC2CCOCC2)c2ccccc21 (stereo not shown) [Example 26] | 100 to 1000 | – | –
8 | COc1ccc2c(n1)C1(CO2)C(=O)N(Cc2ccc(C(F)(F)F)o2)c2ccccc21 (stereo not shown) [Example 5] | 100 to 1000 | – | –
9 | COc1cc2c(cn1)OCC21C(=O)N(C[C@@H]2CCCO2)c2ccccc21 (stereo partly shown) [Example 27] | 10 to 100 | – | –
10 | COc1ccc2c(n1)C1(CO2)C(=O)Nc2cccc(Br)c21 (stereo not shown) [Synthetic Example 12, 4′-bromo-5-methoxyspiro[furo[3,2-b]pyridine-3,3′-indol]-2′(1′H)-one] | – | 265 to 268 | –
11 | NC1=N[C@H](O)[C@H]2[C@H]3O[C@]4(O)O[C@@H]([C@@H](O)[C@@]2(N1)[C@@H]4O)[C@]3(O)CO [TTX, tetrodotoxin] | – | – | block of [14C] guanidine influx [2]: TTX partially blocked influx; block of [14C] guanidine influx [3]: Guanidine influx was completely; block of [14C] guanidine influx [4]: Guanidine influx was completely; block of [14C] guanidine influx [5]: partially blocked by TTX (Nav1.5
12 | CCCCCN1C(=O)C2(COc3ccncc32)c2ccccc21 (stereo not shown) [Example 2] | ≥ 1000 | – | –
13 | COc1ccc2c(n1)C1(CO2)C(=O)N(Cc2ccc(C(F)(F)F)o2)c2cccc(Cl)c21 (stereo not shown) [Example 11] | 100 to 1000 | – | –
14 | O=C1N(Cc2ccc(C(F)(F)F)o2)c2ccccc2C12COc1cc3c(nc12)OCO3 (stereo not shown) [Synthetic Example 8, 1′-{[5-(trifluoromethyl)-2-furyl]methyl}spiro[1,3-dioxolo[4,5-b]furo[2,3-e]pyridine-5,3′-indol]-2′(1′H)-one] | – | 175 to 177 | –
15 | COc1ccc2c(n1)C1(CO2)C(=O)N(Cc2ccccn2)c2ccccc21 (stereo not shown) [Example 17] | 100 to 1000 | – | –
16 | COc1ccc2c(n1)C1(CO2)C(=O)N(Cc2ccc(C(F)(F)F)o2)c2ccc(F)cc21 (stereo not shown) [Synthetic Example 10, 5′-fluoro-5-methoxy-1′-{[5-(trifluoromethyl)-2-furyl]methyl}spiro[furo[3,2-b]pyridine-3,3′-indol]-2′(1′H)-one] | – | 158 to 160 | –
17 | COc1cc2c(cn1)OCC21C(=O)N(C(c2ccccc2)c2ccccc2)c2ccccc21 (stereo not shown) [Example 24] | ≥ 1000 | – | –
18 | COc1ccc2c(n1)C1(CO2)C(=O)N(CC(=O)Nc2ccccc2F)c2ccccc21 (stereo not shown) [Example 18] | 100 to 1000 | – | –
19 | COc1ccc2c(n1)C1(CO2)C(=O)Nc2cccc(Br)c21 (stereo not shown) [Example 12] | 100 to 1000 | – | –
20 | COc1cc2c(cn1)OCC21C(=O)N(C[C@H]2CCCO2)c2ccccc21 (stereo partly shown) [Example 28] | 10 to 100 | – | –
21 | COc1ccc2c(n1)C1(CO2)C(=O)N(CC2CCN(C)CC2)c2ccccc21 (stereo not shown) [Example 22] | ≥ 1000 | 58 to 62 | –
22 | COc1ccc2c(n1)C1(CO2)C(=O)N(Cc2ccc(Cl)s2)c2ccccc21 (stereo not shown) [Example 15] | 10 to 100 | – | –
23 | COc1cc2c(cn1)OCC21C(=O)Nc2ccccc21 (stereo not shown) [Synthetic Example 25, 5-methoxyspiro[furo[2,3-c]pyridine-3,3′-indol]-2′(1′H)-one] | – | 231 to 232 | –
24 | COc1ccc2c(n1)C1(CO2)C(=O)N(Cc2ncc(Cl)n2C)c2ccccc21 (stereo not shown) [Example 19] | 100 to 1000 | 169 to 171 | –
25 | COc1cc2c(cn1)OCC21C(=O)N(CC2CCOCC2)c2ccccc21 (stereo not shown) [Synthetic Example 26, 5-methoxy-1′-(tetrahydro-2H-pyran-4-ylmethyl)spiro[furo[2,3-c]pyridine-3,3′-indol]-2′(1′H)-one] | – | 84 to 85 | –
26 | COc1ccc2c(n1)C1(CO2)C(=O)N(Cc2ccc(C(F)(F)F)o2)c2ccccc21 (stereo not shown) [Synthetic Example 5, 5-methoxy-1′-{[5-(trifluoromethyl)-2-furyl]methyl}spiro[furo[3,2-b]pyridine-3,3′-indol]-2′(1′H)-one] | – | 145 to 147 | –
27 | COc1ccc2c(n1)C1(CO2)C(=O)N(Cc2csc(C(C)C)n2)c2ccccc21 (stereo not shown) [Example 16] | 10 to 100 | 136 to 138 | –
28 | CCCCCN1C(=O)C2(COc3cc[nH]c(=O)c32)c2ccccc21 (stereo not shown) [Example 3] | ≥ 1000 | – | –
29 | COc1cc2c(cn1)OCC21C(=O)N(Cc2ccc(C(F)(F)F)o2)c2ccccc21 (stereo not shown) [Example 23] | 1 to 10 | – | –
30 | O=C1N(Cc2ccc(C(F)(F)F)o2)c2ccccc2C12COc1cc3c(nc12)OCO3 (stereo not shown) [Example 8] | 1 to 10 | – | –
